The values below come from patent US20110086853A1, “Therapeutic Compounds” (priority 2009, published 2011).

The assay deals with T1, Human CB1 receptor (Homo sapiens, UniProt P21554).
T1 construct: purchased Receptor Biology
T1 sequence (P21554 whole entry): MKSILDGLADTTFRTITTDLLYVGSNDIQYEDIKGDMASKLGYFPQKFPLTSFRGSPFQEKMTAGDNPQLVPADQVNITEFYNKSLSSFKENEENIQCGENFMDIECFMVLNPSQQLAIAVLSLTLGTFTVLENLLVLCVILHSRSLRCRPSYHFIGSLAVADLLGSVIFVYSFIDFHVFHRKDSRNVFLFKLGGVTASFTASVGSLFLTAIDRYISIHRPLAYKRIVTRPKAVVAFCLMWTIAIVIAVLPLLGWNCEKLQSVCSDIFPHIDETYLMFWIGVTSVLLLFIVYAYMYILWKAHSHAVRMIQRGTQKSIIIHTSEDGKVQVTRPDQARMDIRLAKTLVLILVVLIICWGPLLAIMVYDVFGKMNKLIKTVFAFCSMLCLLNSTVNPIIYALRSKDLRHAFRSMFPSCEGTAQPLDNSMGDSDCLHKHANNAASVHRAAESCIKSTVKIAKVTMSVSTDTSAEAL
As to the kind of experiment: hCB1 GTPγS binding. It is filed as biochemical. The note with it: maximal stimulated binding determined with 10 μM Win 55,212-2. Here is the method: hCB1 and hCB2 GTPγS Binding
Human CB1 receptor from Receptor Biology (hCB1) or human CB2 receptor membranes (BioSignal) are thawed at 37° C., passed 3 times through a 25-gauge blunt-end needle and diluted in the GTPγS binding buffer (50 mM Hepes, 20 mM NaOH, 100 mM NaCl, 1 mM EDTA, 5 mM MgCl2, pH 7.4, 0.1% BSA). The EC50 and Emax of the compounds of the invention are evaluated from 10-point dose-response curves done in 300 μl with the appropriate amount of membrane protein and 100000-130000 dpm of GTPg^35S per well (0.11-0.14 nM). The basal and maximal stimulated binding is determined in absence and presence of 1 μM (hCB2) or 10 μM (hCB1) Win 55, 212-2 respectively. The membranes are pre-incubated for 5 minutes with 56.25 μM (hCB2) or 112.5 μM (hCB1) GDP prior to distribution in plates (15 μM (hCB2) or 30 μM (hCB1) GDP final). The plates are vortexed and incubated for 60 minutes at room temperature, filtered on Unifilters GF/B (presoaked in water) with the Tomtec or Packard harvester using 3 ml of wash buffer (50 mM Tris, 5 mM MgCl2, 50 mM NaCl, pH 7.0). The filters are dried for 1 hour at 55° C. The radioactivity (cpm) is counted in a TopCount (Packard) after adding 65 μl/well of MS-20 scintillation liquid. Antagonist reversal studies are done in the same way except that (a) an agonist dose-response curve is done in the presence of a constant concentration of antagonist, or (b) an antagonist dose-response curve is done in the presence of a constant concentration of agonist.
(GTPγS is a poorly hydrolysed GTP analogue; its binding reports G protein activation.)
In general, Emax refers to the size of the effect at its maximum, as opposed to the concentration needed. On to `CC(C)(C)c1nc2cc(S(=O)(=O)n3cc(C(=O)NC4CC4)cn3)ccc2n1CC1CCC(F)(F)CC1` [1-({2-tert-Butyl-1-[(4,4-difluorocyclohexyl)methyl]-1H-benzimidazol-5-yl}sulfonyl)-N-cyclopropyl-1H-pyrazole-4-carboxamide], for which the maximum response (Emax) worked out at 122%.
For `CC(C)NC(=O)c1cnn(S(=O)(=O)c2ccc3c(c2)nc(C(C)(C)C)n3CC2CCC(F)(F)CC2)c1` [1-({2-tert-Butyl-1-[(4,4-difluorocyclohexyl)methyl]-1H-benzimidazol-5-yl}sulfonyl)-N-isopropyl-1H-pyrazole-4-carboxamide] the value was 125%.
For the compound `CNC(=O)c1cnn(S(=O)(=O)c2ccc3c(c2)nc(C(C)(C)C)n3CC2CCC(F)(F)CC2)c1` [1-({2-tert-Butyl-1-[(4,4-difluorocyclohexyl)methyl]-1H-benzimidazol-5-yl}sulfonyl)-N-methyl-1H-pyrazole-4-carboxamide], the Emax was 118%.
For `CC(C)(C)c1nc2cc(S(=O)(=O)n3ccc(C(=O)NC4CC4)c3)ccc2n1CC1CCOCC1` [1-{[2-tert-Butyl-1-(tetrahydro-2H-pyran-4-ylmethyl)-1H-benzimidazol-5-yl]sulfonyl}-N-cyclopropyl-1H-pyrrole-3-carboxamide], the Emax was 142%.
`CCNC(=O)c1ccn(S(=O)(=O)c2ccc3c(c2)nc(C(C)(C)C)n3CC2CCOCC2)c1` [1-{[2-tert-butyl-1-(tetrahydro-2H-pyran-4-ylmethyl)-1H-benzimidazol-5-yl]sulfonyl}-N-ethyl-1H-pyrrole-3-carboxamide] registered an Emax of 138%.
As to `CC(C)(C)c1nc2cc(S(=O)(=O)N3CCOC(C(=O)NC4CC4)C3)ccc2n1CC1CCC(F)(F)CC1` (centres unmarked) [4-({2-tert-Butyl-1-[(4,4-difluorocyclohexyl)methyl]-1H-benzimidazol-5-yl}sulfonyl)-N-cyclopropylmorpholine-2-carboxamide], the Emax stood at 120%.
`CCNC(=O)[C@@H]1CN(S(=O)(=O)c2ccc3c(c2)nc(C(C)(C)C)n3CC2CCC(F)(F)CC2)CCO1` [(2S)-4-((2-tert-butyl-1-[(4,4-difluorocyclohexyl)methyl]-1H-benzimidazol-5-yl}sulfonyl)-N-ethylmorpholine-2-carboxamide]: the Emax amounted to 156%.
Turning to `CC(C)(C)c1nc2cc(S(=O)(=O)N3CCC[C@H](C(=O)NC4CC4)C3)ccc2n1CC1CCC(F)(F)CC1` [(3S)-1-({2-tert-Butyl-1-[(4,4-difluorocyclohexyl)methyl]-1H-benzimidazol-5-yl}sulfonyl)-N-cyclopropylpiperidine-3-carboxamide], the maximum response (Emax) stood at 136%.
Compound `CCCNC(=O)[C@H]1CCCN(S(=O)(=O)c2ccc3c(c2)nc(C(C)(C)C)n3CC2CCC(F)(F)CC2)C1` [(3S)-1-({2-tert-Butyl-1-[(4,4-difluorocyclohexyl)methyl]-1H-benzimidazol-5-yl}sulfonyl)-N-propylpiperidine-3-carboxamide] came in with an Emax of 134%.
Turning to `CCNC(=O)c1cnn(S(=O)(=O)c2ccc3c(c2)nc(C(C)(C)C)n3CC2CCOCC2)c1` [Example 27, 1-{[2-tert-Butyl-1-(tetrahydro-2H-pyran-4-ylmethyl)-1H-benzimidazol-5-yl]sulfonyl}-N-ethyl-1H-pyrazole-4-carboxamide], the Emax is 127%.
`CC(F)(F)c1nc2cc(S(=O)(=O)n3ccc(C(=O)NC4CC4)c3)ccc2n1CC1CCOCC1` [N-Cyclopropyl-1-{[2-(1,1-difluoroethyl)-1-(tetrahydro-2H-pyran-4-ylmethyl)-1H-benzimidazol-5-yl]sulfonyl}-1H-pyrrole-3-carboxamide] returned a maximal effect (Emax) of 119%.
